This passage reports MIC50 results from patent US20220127297A1, “Novel Antibacterial 3"-Derivatives Of 4,6-Disubstituted 2,5-Dideoxystreptamine Aminoglycoside Antibiotics” (AGILeBiotics B.V., priority 2018, published 2022).

The test system of test [1] is E. coli (AAC(3)IV). Nature of the test: MIC 50, broth micro-dilution, E. coli expressing AAC(3)IV. Format: cell-based, Escherichia coli. The settings on record: Escherichia coli, ATCC25922, ATCC25922 harboring plasmid encoding AAC(3)IV. On the procedure: Plasmid transformation. Approximately 500 ng of the pET-9b(+) (Cat. No. 69432-3, Merck), pAT21-1 (provided by Prof. Dr. Patrice Courvalin, M.D., Pasteur Institute, France; prepared according to Trieu-Cuot et. al, Mol. Gen. Genet. 198(2), 348 (1985)), pBluescript::AAC(6′)-Ie/APH(2″)-Ia (provided by Prof. Dr. Sergei Vakulenko, M.D., University of Notre Dame, Ind., USA; prepared according to S. B. Vakulenko et. al., J. Biol. Chem. 287 (52), 43262 (2012)), pBlue_lpp_aacC3_rrnC and pSET152 (Cat. No. PVT3395, Life Science Market; prepared according to Bierman et al., Gene 116 (1), 43 (1992)) plasmids, encoding APH(3′)-Ia (SEQ ID NO:2), APH(3′)-IIIa (SEQ ID NO:3), AAC(6′)Ie-APH(2″)-Ia (SEQ ID NO:4), AAC(3)-III (SEQ ID NO:1), and AAC(3)-IV (SEQ ID NO:5) respectively, were individually incubated in a vial of competent cells for 15 min on ice. The cells were subsequently heated to 42° C. for 90 s, and cooled on ice for 1 min. After addition of 900 μL LB, the cells were incubated for 1 h at 37° C. and 200 rpm. Cells were plated on LB-agar supplemented with 50 μg/mL KanaA and incubated for 18 h at 37° C. The next day, a single colony was inoculated in 5 mL LB supplemented with 50 μg/mL and grown for 18 h at 37° C. and 200 rpm. A 200 μL sample of each culture was diluted with 200 μL of 40% v/v glycerol in water, and stored at −80° C. The plasmid was purified from the remaining culture using the Plasmid Miniprep kit. Plasmid DNA was investigated by Eurofins Genomics (Germany) to confirm the identity of the aminoglycoside resistance genes.
(§1) 3.1 Against E. coli Strains
(§2) Tested reference compounds. Amikacin sulfate (Cat. No. 01693, Chem-Impex), Gentamicin sulfate (Cat. No. G4918, Sigma Aldrich).
(§3) Microbial strains. E. coli ATCC 25922, E. coli ATCC 25922/pET-9b(+), E. coli ATCC 25922/pAT21-1, E. coli ATCC 25922/pBluescript::AAC(6′)-Ie/APH(2″)-Ia, E. coli ATCC 25922/pBlue_lpp_aacC3_rrnC, E. coli ATCC 25922/pSET152.
(§4) Culture media and equipment. BBL™ Mueller Hinton Broth 2 (Lot. BCBW1143, Cat. No. 70192, Sigma); Kanamycin A (Cat. No. A1493, AppliChem); 96-well deep well plate, 1 mL (Cat. No. 0030506.200, Eppendorf); Plate lids (Cat. No. 0030131.525, Eppendorf); 96-well plate, F-bottom (Cat. No. 781602, Brand; Incubator, Infors Multitron Pro); Laminar flow (Heraeus KS12); UV/VIS meter (Eppendorf BioPhotometer Plus); Platereader (Tecan Sunrise).
(§5) Compound preparation. Compounds were prepared in MH2 media at a concentration of 5 mM and stored at 4° C. For testing, solutions of 128 μM were prepared in MH2. Out of these working solutions, 400 μL was transferred to wells in the first column of 96-well deep well plates. Each compound was transferred in triplicate. Plates were previously filled with 200 μL of MH2 media in all wells except for the wells in the first column. After compound and antibiotic addition, the compounds were serial two-fold diluted by transferring 200 μL from the first to the second column, then from the second to the third column and so on. Finally, 200 μL was removed from the last column.
(§6) Inoculum preparation. Microorganisms used were all revived from 20% glycerol (40% v/v glycerol in water was diluted with MH2) storage at −80° C. by inoculating them in 5 mL MH2. inoculums of E. coli containing a plasmid were selected for by adding 50 μg/mL KanaA. The Inoculums were grown to an optical density (measured by UV/Vis spectroscopy) of 0.6-0.8 at 600 nm. Out of these suspensions, actual inoculums were prepared by diluting them to an optical density (OD) of 0.1 in MH2 media. From these inoculums, 200 μL was transferred to each well, resulting in a final compound concentration range of 64 μM-31.3 nM. All plates were incubated at 900 rpm and 70% rH for 18 h at 37° C.
MIC determination. After 18 h of growth, 200 μL was transferred to a 96-well F-bottom plate. The optical density was determined by a plate reader at 600 nm, with 10 s shaking before reading. Triplicate measurements were averaged, and a growth curve was plotted in Microsoft Excel. […]

Test [2] concerns E. coli ATCC25922 strain. The test is described as follows: MIC 50, broth micro-dilution, wild-type Escherichia coli. Type of test: cell-based. As to conditions: Escherichia coli, MH2, 18 h.
Description: as §1, §2, §3, §4, §5, §6
MIC determination. After 18 h of growth, 200 μL was transferred to a 96-well F-bottom plate. The optical density was determined by a plate reader at 600 nm, with 10 s shaking before reading. Triplicate measurements were averaged, and a growth curve was plotted in Microsoft Excel. The first column in which the growth reached half the value of maximum growth was determined as the MIC50 value for that particular compound.
MIC50. The MIC50 of a compound was assigned at which the bacterial growth reached half the value of maximum growth.

Each structure is given as a SMILES string. In brackets after ≈: the same amount, converted by molar mass. Where two headings read alike, the source gives them in different places.

As to `CNCCNC(=N)NC1[C@@H](O)C(OC2[C@@H](F)[C@H](O[C@H]3OC(CN)[C@@H](O)CC3N)C(N)C[C@H]2NC(=O)[C@@H](O)CCN)O[C@H](CO)[C@H]1O` (some centres unmarked) [ABX5038, Tobra-AHB-F-Gua 2-(methylamino)ethyl], the MIC50 in test [1] is 1 µM (≈ 0.67 µg/mL); in test [2] (ATCC25922, 18 h), 0.25 µM (≈ 0.167 µg/mL).
Turning to `N=C(NC[C@@H]1CCNC1)NC1[C@@H](O)C(OC2[C@@H](F)[C@H](O[C@H]3OC(CN)[C@@H](O)CC3N)C(N)C[C@H]2NC(=O)[C@@H](O)CCN)O[C@H](CO)[C@H]1O` (stereo partly drawn) [ABX5039, Tobra-AHB-F-Gua (R) pyrrolidine-3-ylmethyl], the MIC50 was 1 µM (≈ 0.696 µg/mL) in test [1] and 0.25 µM (≈ 0.174 µg/mL) in test [2] (ATCC25922, 18 h).
Taken in the same sequence, the figures for `N=C(NC[C@@H]1CNCCO1)NC1[C@@H](O)C(OC2[C@@H](F)[C@H](O[C@H]3OC(CN)[C@@H](O)CC3N)C(N)C[C@H]2NC(=O)[C@@H](O)CCN)O[C@H](CO)[C@H]1O` (stereo partly drawn) [ABX5040, Tobra-AHB-F-Gua (S) morpholin-2-yl methyl] were 1 µM (≈ 0.712 µg/mL) and 0.5 µM (≈ 0.356 µg/mL).
For the compound `N=C(NCCCO)NC1[C@@H](O)C(OC2[C@@H](F)[C@H](O[C@H]3OC(CN)[C@@H](O)CC3N)C(N)C[C@H]2NC(=O)[C@@H](O)CCN)O[C@H](CO)[C@H]1O` (some centres unmarked) [ABX5041, Tobra-AHB-F-Gua 3-hydroxy-propyl], the MIC50 in test [1] was 2 µM (≈ 1.34 µg/mL); in test [2] (ATCC25922, 18 h), 0.5 µM (≈ 0.335 µg/mL).
As to `N=C(NC[C@H]1CCNC1)NC1[C@@H](O)C(OC2[C@@H](F)[C@H](O[C@H]3OC(CN)[C@@H](O)CC3N)C(N)C[C@H]2NC(=O)[C@@H](O)CCN)O[C@H](CO)[C@H]1O` (stereo partly drawn) [ABX5042, Tobra-AHB-F-Gua (S) pyrrolidine-3-ylmethyl], the MIC50 is 1 µM (≈ 0.696 µg/mL) in test [1] and 0.25 µM (≈ 0.174 µg/mL) in test [2] (ATCC25922, 18 h).
Take `N=C(NC[C@H]1CNCCO1)NC1[C@@H](O)C(OC2[C@@H](F)[C@H](O[C@H]3OC(CN)[C@@H](O)CC3N)C(N)C[C@H]2NC(=O)[C@@H](O)CCN)O[C@H](CO)[C@H]1O` (stereo partly drawn) [ABX5043, Tobra-AHB-F-Gua (R) morpholin-2-yl methyl]: the MIC50 in test [1] was 1 µM (≈ 0.712 µg/mL); in test [2] (ATCC25922, 18 h) it was 0.25 µM (≈ 0.178 µg/mL).
In the case of `N=C(N)NC1[C@@H](O)C(OC2[C@@H](F)[C@H](O[C@H]3OC(CNCCO)[C@@H](O)CC3N)C(N)C[C@H]2NC(=O)[C@@H](O)CCN)O[C@H](CO)[C@H]1O` (some centres unmarked) [ABX5045, 6N-2-hydroxy-ethyl-Tobra-AHB-F-Gua], the MIC50 amounted to 2 µM (≈ 1.31 µg/mL) in test [1] and 1 µM (≈ 0.657 µg/mL) in test [2] (ATCC25922, 18 h).
In the case of `N=C(NCC1CCCO1)NC1[C@@H](O)C(OC2[C@@H](F)[C@H](O[C@H]3OC(CN)[C@@H](O)CC3N)C(N)C[C@H]2NC(=O)[C@@H](O)CCN)O[C@H](CO)[C@H]1O` (some centres unmarked) [ABX5046, Tobra-AHB-F-Gua tetrahydrofuran-2-yl methyl], the MIC50 in test [1] is 1 to 2 µM (≈ 0.697 to 1.39 µg/mL); in test [2] (ATCC25922, 18 h) it was 0.5 µM (≈ 0.348 µg/mL).
Consider `C[C@@H](N)CCNC(=N)NC1[C@@H](O)C(OC2[C@@H](F)[C@H](O[C@H]3OC(CN)[C@@H](O)CC3N)C(N)C[C@H]2NC(=O)[C@@H](O)CCN)O[C@H](CO)[C@H]1O` (stereo partly drawn) [ABX5047, Tobra-AHB-F-Gua (R) 3-amino-butyl], for which the MIC50 is 1 to 2 µM (≈ 0.684 to 1.37 µg/mL) in test [1] and 0.25 µM (≈ 0.171 µg/mL) in test [2] (ATCC25922, 18 h).
For `N=C(NCc1ccncc1)NC1[C@@H](O)C(OC2[C@@H](F)[C@H](O[C@H]3OC(CN)[C@@H](O)CC3N)C(N)C[C@H]2NC(=O)[C@@H](O)CCN)O[C@H](CO)[C@H]1O` (some centres unmarked) [ABX5048, Tobra-AHB-F-Gua pyridin-4-yl methyl], the MIC50 in test [1] was 1 to 2 µM (≈ 0.704 to 1.41 µg/mL); in test [2] (ATCC25922, 18 h), 1 µM (≈ 0.704 µg/mL).
For the compound `N=C(NCc1cnc[nH]1)NC1[C@@H](O)C(OC2[C@@H](F)[C@H](O[C@H]3OC(CN)[C@@H](O)CC3N)C(N)C[C@H]2NC(=O)[C@@H](O)CCN)O[C@H](CO)[C@H]1O` (some centres unmarked) [ABX5050, Tobra-AHB-F-Gua imidazol-5-yl methyl], the MIC50 in test [1] is 2 to 4 µM (≈ 1.39 to 2.77 µg/mL); in test [2] (ATCC25922, 18 h), 1 µM (≈ 0.693 µg/mL).
`N=C(NCC1CCOC1)NC1[C@@H](O)C(OC2[C@@H](F)[C@H](O[C@H]3OC(CN)[C@@H](O)CC3N)C(N)C[C@H]2NC(=O)[C@@H](O)CCN)O[C@H](CO)[C@H]1O` (some centres unmarked) [ABX5051, Tobra-AHB-F-Gua tetrahydrofuran-3-yl methyl]: the MIC50 in test [1] is 2 µM (≈ 1.39 µg/mL); in test [2] (ATCC25922, 18 h), 0.5 µM (≈ 0.348 µg/mL).
As to `NCC[C@H](O)C(=O)N[C@@H]1C[C@H](N)[C@@H](O[C@H]2O[C@H](CN)[C@@H](O)[C@H](O)[C@H]2O)[C@H](O)[C@H]1O[C@H]1O[C@H](CO)[C@@H](O)[C@H](N)[C@H]1O` [Amikacin, amikacin, reference compound], the MIC50 was 8 µM (≈ 4.68 µg/mL) in test [1] and 2 µM (≈ 1.17 µg/mL) in test [2] (read-out: MIC 50).
